Residues, ends and D or L forms follow the SMILES beside them. *: point of attachment. Cbz = O=C(OCc1ccccc1)*; CH2F = FC*
Columns and labels:
[1] = test system: endogenous human caspase-12; assay: Induction of endogenous caspase-12 protein by ER stress-inducing agents in SH-EP cells (Western blot); type: cell-based
Procedure: Reports in the literature indicated a strong activation of murine caspase-12 in response to agents which induce an endoplasmic reticulum (ER) stress response, such as tunicamycin or the Ca^2+ ionophore A23187. The activation of endogenous human caspase-12 by these ER stress-inducing agents in SH-EP and HEK293 cells was evaluated by Western blot analysis of cell lysates. SH-EP is a neuroblastoma cell line that endogenously expresses human caspase-12 at detectable levels. HEK293 is a transformed kidney cell line that lacks detectable caspase-12.
Cell cultures were treated with 1 μg/ml tunicamycin or 2 μM A23187 (Calbiochem) and harvested over time. Cells were lysed in detergent buffer, cellular proteins resolved on NuPAGE gels and subjected to Western blot analysis using the same antibody as in Example 8A above. […] (BACHEM) for 40 hours.
(§1) The biological significance of caspase-12 up-regulation by the ER stress-inducing agent A23187 in apoptosis was further investigated. SH-EP cells were treated with 2 μM A23187 for 40 hours to induce expression of endogenous caspase-12. One control culture was left untreated. Of the four cultures treated with A23187, one culture received 10 μg/ml cycloheximide (CHX) to block new protein synthesis and two cultures were subjected to an apoptotic stimulus, either 250 ng/ml α-Fas antibody for 24 hours or 1200 microjoules UV irradiation. The cultures were harvested after 6.5 hours. Western blot analysis of caspase-12 expression and activation was done as described above in Example 8A, using similar protein loads for each condition tested.

caspase-3 = assay: Caspase-3 cleavage following UV irradiation in SH-EP cells subjected to ER stress (Western blot); type: cell-based; conditions: 2 μM A23187 40 hours
endogenous caspase-12 = assay: Caspase-12 cleavage/activation in SH-EP cells subjected to ER stress (Western blot); type: cell-based, human; conditions: 2 μM A23187 40 hours, harvested 6.5 hours after UV
Procedure: as §1
Additional experiments of were conducted to evaluate the effect of a caspase or calpain inhibitor on SH-EP cells subjected to ER stress. Z-VAD-fmk (Z=benzyloxycarbonyl group at the N-terminus of Val-Ala-DL-Asp(OMe)-fluoromethylketone; BACHEM) is a general caspase inhibitor that inhibits most of the known caspases, to varying extents. Calpeptin is an inhibitor of calpains, a family of calcium-dependent proteases that proteolyze a variety of cellular proteins. […] Caspase activation was evaluated by Western blot using antibodies to caspase-12 as described above in Example 8A. […]

procaspase-3 = assay: Proteolytic activity using procaspase-3 substrate (Western blot); type: biochemical; conditions: partially purified preparation, 2 hours at 37° C.; antibody to full-length caspase-3
Procedure: Lysates which contain recombinant caspases produced by expression in E. coli often contain fragments indicative of autoprocessing. Because the autolysis in caspase-12 lysates observed in Example 3B above is indicative of enzymatic activity, the enzymatic activity of partially purified human caspase-12 lysates was evaluated using procaspase-3 as a potential substrate. Caspase-3 is an effector caspase, which is cleaved at Asp175 by initiator caspases-8 and -9 to give the mature 19 kDa and 11 kDa subunits of the active enzyme. Processing of procaspase-3 was evaluated by Western blot analysis using an antibody that binds to full-length caspase-3 and another antibody that binds to the larger B subunit and that is specific for activated enzyme.
For use as a substrate for caspase-12, procaspase-3 was immunoprecipitated from SH-EP cell lysates using an antibody to full-length caspase-3 (Upstate Biotechnology, Inc.) and isolated on Protein G-Plus/Protein A agarose (Oncogene Science). […] Caspase-3 processing/activation by caspase-12 was detected by incubating with an anti-caspase-3 antibody (Upstate Biotechnology) which recognizes all subunits of caspase-3. Following incubation with an anti-rabbit HRP-conjugated antibody (Santa Cruz Biotechnology), immunoreactivity was detected by chemiluminescence using SuperSignal West PICO reagent (Pierce). […]

calpain II = target: T1, calpain II (Homo sapiens, UniProt P17655); assay: Calpain II cleavage of human caspase-12 in vitro (Western blot); type: biochemical; conditions: affinity-purified protein, 0.012 U/μl calpain II activated by 5 mM CaCl2
T1 construct: purchased Calbiochem
T1 sequence (P17655 1-700): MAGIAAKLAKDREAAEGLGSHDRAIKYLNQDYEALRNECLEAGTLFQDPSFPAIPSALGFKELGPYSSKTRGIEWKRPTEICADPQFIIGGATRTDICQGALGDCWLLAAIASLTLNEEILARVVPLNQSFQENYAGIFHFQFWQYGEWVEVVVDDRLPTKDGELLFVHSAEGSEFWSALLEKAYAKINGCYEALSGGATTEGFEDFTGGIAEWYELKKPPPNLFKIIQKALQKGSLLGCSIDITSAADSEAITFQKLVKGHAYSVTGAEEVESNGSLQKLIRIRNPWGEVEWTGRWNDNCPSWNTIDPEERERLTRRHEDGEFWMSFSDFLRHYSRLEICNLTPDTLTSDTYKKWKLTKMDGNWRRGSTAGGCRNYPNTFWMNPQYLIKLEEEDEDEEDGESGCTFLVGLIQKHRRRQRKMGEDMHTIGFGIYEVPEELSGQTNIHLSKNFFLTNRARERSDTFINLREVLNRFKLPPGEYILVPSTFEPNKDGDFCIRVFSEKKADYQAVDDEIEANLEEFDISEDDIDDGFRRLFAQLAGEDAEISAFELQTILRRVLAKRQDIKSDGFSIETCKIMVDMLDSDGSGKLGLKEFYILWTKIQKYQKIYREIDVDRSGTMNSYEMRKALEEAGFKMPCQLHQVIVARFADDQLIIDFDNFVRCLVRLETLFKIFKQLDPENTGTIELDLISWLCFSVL
T1 sequence (P04632 1-268 partner): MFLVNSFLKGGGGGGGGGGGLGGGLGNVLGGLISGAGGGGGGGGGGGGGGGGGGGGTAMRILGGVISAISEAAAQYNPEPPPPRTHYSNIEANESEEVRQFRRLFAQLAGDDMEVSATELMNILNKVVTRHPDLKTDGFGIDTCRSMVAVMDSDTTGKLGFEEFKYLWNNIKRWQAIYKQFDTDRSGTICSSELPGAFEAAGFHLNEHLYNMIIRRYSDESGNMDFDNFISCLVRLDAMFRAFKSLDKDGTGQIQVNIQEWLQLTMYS
Procedure: The relationship between calpain and caspase-12 was explored in vitro as follows. Affinity-purified hCaspase-12 and ΔCARD caspase-12 prepared as described in Example 3B above, were incubated with 0.012 U/μl calpain II (Calbiochem) in solutions containing 150 mM NaCl, 20 mM Tris-HCl, pH 7.5, and 1 mM DTT. Calpain II was activated by the addition of 5 mM CaCl2, while corresponding control cultures were not activated by addition of calcium. Cleavage of human caspase-12 was evaluated by Western blot analysis as described in Example 8A above. […] Thus, the activation and processing of caspase-12 is closely tied to cellular calcium levels. It is anticipated that calpain will process caspase-12 by recognizing the cleavage site “ASADT” at positions 269-272 of hCaspase-12 (SEQ ID NO: 77), with cleavage occurring between residues 271 and 272. Because cellular calcium is an important regulatory feature in health and disease, the signaling pathway to caspase-12 may have multiple branches that can result in activation of this caspase.

SH-EP cells = assay: Cleavage of exogenous hCaspase-12 in transfected SH-EP cells after αFas-antibody induction of the extrinsic cell death pathway (Western blot); type: cell-based; conditions: 250 ng/ml αFas-antibody for 18 hours
Procedure: The role of hCaspase-12 in cell death pathways was examined using cells of a neuroblastoma cell line, SH-EP. In the extrinsic (or receptor-induced) cell death pathway, caspase-8 is the apical caspase that cleaves effector caspases such as caspase-3, which cleaves many cellular substrates. Caspase activation, indicated by cleavage of the proform of the enzyme in cell lysates, was evaluated by Western blot analysis.
The expression vector pIRES-hrGFP-1a harboring the hCaspase-12 or RIK-5 gene was transfected into SH-EP cells using Superfect transfection reagent (Qiagen). At 24 hours post-transfection, 250 ng/ml αFas-antibody (CH-11, Upstate Biotechnology) was added and incubated for 18 hours to induce the extrinsic cell death pathway. Culture medium and cells were harvested and lysed in detergent buffer. Cleavage of exogenous hCaspase-12 was evaluated by Western blot analysis using anti-human caspase-12 antibody (prepared against peptide WSHHLEEIFQKVQHSFE as described in Example 4).

DEVD-R110 = assay: Homogeneous Caspase Assay, fluorimetric, release of rhodamine-110 from DEVD-R110; type: biochemical; conditions: partially purified protein preparation; two-hour incubation of DEVD-R110 substrate
Text: The enzymatic activity of the partially purified hCaspase-12 and ΔCARD proteins was further evaluated in a fluorimetric assay allowing quantitation. The caspase activity of partially purified hCaspase-12 and ΔCARD protein preparations was compared to a control (non-caspase protein) preparation, using the Homogeneous Caspase Assay (Roche Biochemicals) according to the manufacturer's protocol. The assay measures the amount of free rhodamine-110, following its release from the substrate DEVD-R110, a caspase recognition sequence. Following a two-hour incubation of DEVD-R110 substrate with dilutions of the various protein preparations, free rhodamine-110 was quantitated fluorimetrically. Measured fluorescence intensity (RFU) for each preparation was 807 for hCaspase-12, 445 for ΔCARD, and 31 for the control.

Molecule: CNc1ccc2oc(C[C@H]3O[C@@]4(CC[C@H]3C)O[C@H]([C@H](C)C(=O)c3ccc[nH]3)[C@H](C)C[C@H]4C)nc2c1C(=O)O [A23187]
- Induction of caspase-12 protein ([1]; SH-EP cells, 2 μM A23187, harvested over time): strong induction
- Expression of caspase-12 ([1]; SH-EP cells, 2 μM A23187 for 40 hours): induced

Molecule: β-amyloid [25-35]: β-amyloid [25-35] (BACHEM) (GSNKGAIIGLM; Amyloid-beta protein 42; UniProt P05067 696-706, looked up, fragment)
- Induction of human caspase-12 ([1]; cultures treated with 40 μM β-amyloid [25-35] for 40 hours): induction of human caspase-12 was observed

Molecule: COC(=O)C[C@H](NC(=O)[C@H](C)NC(=O)[C@@H](NC(=O)OCc1ccccc1)C(C)C)C(=O)CF [Z-VAD-fmk] (Cbz-Val-Ala-Asp(OMe)-CH2F)
- Cleavage of caspase-3 following UV irradiation (caspase-3; 50 μM Z-VAD-fmk): inhibited
- Cleavage of pro-caspase-12 after UV irradiation (endogenous caspase-12; pre-incubated with 50 μM Z-VAD-fmk 1 hour prior to UV): reduces cleavage

Molecule: CCCC[C@@H](C=O)NC(=O)[C@H](CC(C)C)NC(=O)OCc1ccccc1 [calpeptin]
- Cleavage of caspase-3 following UV irradiation (caspase-3; 10 μM calpeptin): not affected
- Cleavage of procaspase-12 after UV irradiation (endogenous caspase-12; pre-incubated with 10 μM calpeptin 1 hour prior to UV): reduced

Molecule: C[C@@H]1C[C@@H]([C@H](O)CC2CC(=O)NC(=O)C2)C(=O)[C@@H](C)C1 [cycloheximide]
- A23187-induced expression of caspase-12 ([1]; SH-EP cells, 2 μM A23187 for 40 hours plus 10 μg/ml cycloheximide): inhibited

B1: hCaspase-12: non-naturally occurring variant human caspase-12 with Ser-205 to Gly mutation (SEQ ID NO: 77), expressed as 6-His fusion protein (protein, listed as Homo sapiens)
chain: MADEKPSNGVLVHMVKLLIKTFLDGIFDDLMENNVLNTDEIHLIGKCLKFVVSNAENLVDDITETAQIAGKIFREHLWNSKKQLSSALLEIQGAQPSGKLKLCPHAHFHELKTKRADEIYPVMEKERRTCLALNIRNKEFNYLHNRNGSELDLLGMRDLLENLGYSVVIKENLTAQEMETALRQFAAHPEHQSSDSTFLVFMSHGILNGICGTKHWDQEPDVLHDDTIFEIFNNRNCQSLKDKPKVIIMQACRGNGAGIVWFTTDSGKASADTHGRLLQGNICNDAVTKAHVEKDFIAFKSSTPHNVSWRHETNGSVFISQIIYYFREYSWSHHLEEIFQKVQHSFETPNILTQLPTIERLSMTRYFYLFPGN
modifications: 6-His tag
- Processing of procaspase-3 to mature subunits (procaspase-3): lower molecular weight bands indicative of cleaved mature subunits were observed
- Cleavage by calpain II (calpain II): cleaves
- Cleavage of exogenous protein in cultures undergoing apoptosis (SH-EP cells): cleaved
- Measured fluorescence intensity (RFU), free rhodamine-110 (DEVD-R110): 807 RFU

Source: US6833248B2, “Human caspase-12 materials and methods” (Pharmacia & Upjohn Company, priority 2000, dated 2004)
